Measured values: publication PMC8147656 (Journal of Personalized Medicine, 2021)
Like-named read-outs stand apart in the source and are kept apart here. Values belong to the compound of their own block, whether it stands above or below them.

Experiments:
CYP2C19 [1] = experiment: CYP2C19-mediated metabolism (fm, intrinsic clearance); assay type: in vitro ADME, human
Procedure: (§1) Absorption was described by a first-order absorption model in line with previous studies. The steady-state volume of distribution (Vss) value was based on previous models.
(§2) The full PBPK model was developed for gliclazide using a middle-out approach. The Vss was predicted by Simcyp Rodgers et al. + ion membrane permeability model. […] The intrinsic clearances per pmol of CYP enzymes were calculated using total intrinsic clearance measured in vitro in human liver microsomes, and fm values obtained from in vivo data. […] Considering the difference in abundance and activity of the transporter between liver and the transfected cell line, a relative activity factor (RAF) was optimized to fit the observed clinical data. Liver passive diffusion clearance (ClPD) of gliclazide was estimated based on experimental logD7.4 value.

CYP2C19 [2] = settings: cited from earlier work
[3] = Population observational study of patients with T2D (GoDARTS): severe gliclazide-induced hypoglycemia; assay type: in vivo, human; settings: gliclazide-treated cohort with genetic data (48 cases and 288 controls); OR (95% CI), p = 0.187
Source text: We used the Scottish Ambulance Service data and the Accident and Emergency diagnosis records to identify severe cases of hypoglycemia in Tayside and Fife, Scotland. […] Logistic regression was used to analyze the effect of the CYP2C19 variants and co-treatment with PPIs on gliclazide-induced hypoglycemia. All analyses were adjusted for known clinical predictors of hypoglycemia, including age, sex, age of T2D diagnosis, body mass index, creatinine and HbA1c [53], as well as the overall number of medications used as a proxy for comorbidities [54]. The CYP2C19 phenotypes were assigned based on diplotypes in the same manner as in healthy volunteers. The analyses were performed using SAS 9.3 (SAS Institute Inc., Cary, NC, USA). Statistical significance was set at p < 0.05.

[4] = gliclazide; ref Proks et al., 2018 [46]; cited from earlier work
CYP2C9 [5] = settings: human liver microsomes, CYP selective inhibitors; cited from earlier work
[6] = cited from earlier work
CYP2C9 [7] = experiment: CYP2C9-mediated metabolism (fm, intrinsic clearance); assay type: in vitro ADME, human; settings: gliclazide; calculated from microsomal total intrinsic clearance [10], CYP abundances and fm [36]
Procedure: as §2

[8] = cited from earlier work; remark: listed apart in the source
Mrp2 = tested on: Mrp2; set-up: method as in PMID 18799822; settings: cited from earlier work
[9] = single oral gliclazide, healthy Chinese volunteers, cited from earlier work
OATP1B1 = settings: cited from earlier work
[10] = In vitro dissolution testing under biorelevant media-change conditions; assay type: physicochemical; settings: conditions without vs with omeprazole (gastric pH)
Procedure: In order to estimate the drug release rate in vivo and concomitant absorption profile, dissolution tests were performed under biorelevant media-change conditions (Table 3), using USP apparatus 2 (Erweka DT 800, Heusenstamm, Germany) at 37 ± 0.5 °C and rotational speed of 100 rpm. Withdrawn aliquots were filtered, diluted and analysed for gliclazide by UV spectrophotometry (UV-1700 spectrophotometer, Shimadzu, Japan). The absorbance obtained at 226 nm was corrected by subtracting the absorbance obtained at 290 nm, according to British Pharmacopeia. All measurements were performed in triplicate. The pH values and tablet residence time in each medium were selected based on the proposed biorelevant dissolution test conditions. […] Medium pH 6.0 was used to simulate the fed state luminal conditions in the ascending colon.

[11] = Clinical trial on omeprazole-gliclazide interaction in healthy volunteers, CYP2C19 NM/RM/UM; assay type: in vivo, human; settings: for AUC(0-t): male, human, serum, oral, 40 mg, gliclazide 40 mg tablet, current trial, geometric mean (95% CI), read-out: AUC0–24, observed
Source text: Fifteen healthy volunteers (men, age 18–30 years, non-smokers) with CYP2C19 NM/RM/UM status were recruited. The exclusion criteria included: a medical history of hepatic, renal, gastrointestinal or hematologic disease or any acute or chronic disease; drug allergy to sulfonylureas or PPIs; history of drug abuse; abnormalities in physical examination, ECG or routine clinical laboratory tests (including fasting blood glucose concentration); medication use during the 14 days prior to and during the study period; grapefruit, grapefruit juice, alcohol, beverages or food containing methylxanthines use during the 72 h prior to and during the study period.
On day 5 of each admission period, after an overnight fast, the volunteers were admitted to the hospital. […] Drugs were given in a sitting position, at 8 AM. Volunteers were not permitted to lie down or sleep for the next 4 h after taking drugs, as well as to perform any strenuous activities for the next 24 h. In order to counteract the blood glucose-lowering action of gliclazide, volunteers received standardized meals: breakfast at 30 min after gliclazide intake, snacks after 2 and 3 h, a lunch (warm meal) after 4 h, a snack after 6 h, dinner after 8 h, and additional snacks at 10 h and 12 h after drugs administration. No other food and drink (with the exception of water) were allowed. For safety reasons, the volunteers were under direct medical supervision throughout the 24 h following drugs administration. Fast-acting carbohydrates, glucose solution for i.v. use and glucagon for intramuscular use were available in case of hypoglycemia.
Venous blood samples were collected on day 5 of each admission period before dosing (0 h) and 0.5, 1, 1.5, 2, 2.5, 3, 3.5, 4, 4.5, 5, 6, 8, 10, 12, 15 and 24 h after gliclazide administration. Serum samples for gliclazide quantification were separated within 30 min following each blood sample collection and stored at −80 °C until the analysis.
Serum gliclazide concentrations were quantified using a validated stable isotope dilution liquid chromatography-tandem mass spectrometry (LC-MS/MS) method. In brief, a total of 10 µL serum was added to 90 µL acetonitrile containing 100 ng/mL of d4-gliclazide and 0.1% formic acid. […] Gliclazide was quantitated by the triple quadrupole mass spectrometer in ESI positive ion mode. […] The limit of quantification was 3.1 ng/mL.
PK parameters were calculated in a noncompartmental analysis using PKSolver, a program for PK data analysis in Microsoft Excel. The area under the plasma gliclazide concentration-time curve (AUC) up to the last concentration measured (AUC0–t) was determined using the linear trapezoidal rule.
The main evaluated outcome was systemic exposure to gliclazide, expressed as AUC0–t. The geometric mean was calculated for AUC0–24. […]

CYP2C19 [12] = settings: previous study based on omeprazole enantiomers; cited from earlier work
[13] = set-up: method as in Hassan-Alin et al., 2005 [30]; settings: geometric mean (95% CI), ref Hassan-Alin et al., 2005 [30], cited from earlier work; for Cmax: read-out: Cmax, observed
CYP2C19 [14] = tested on: CYP2C19; set-up: method as in Ogilvie et al., 2011 [27]; settings: omeprazole; ref Ogilvie et al., 2011 [27]; cited from earlier work
[15] = omeprazole, cited from earlier work
CYP3A4 [16] = experiment: CYP3A4-mediated metabolism (fm, intrinsic clearance); assay type: in vitro ADME, human; settings: omeprazole; retrograde calculated from observed Clpo after 20 mg single dose, fa*fg = 1
Source text: as §1

CYP3A4 [17] = tested on: CYP3A4; set-up: method as in PMID 24739523; settings: omeprazole; average value for CYP2C19 EM/RM/UM phenotypes; cited from earlier work
[18] = set-up: method as in PMID 11117653; settings: healthy volunteers; cited from earlier work
[19] = gliclazide model input, ref Grbic et al., 2011 [40]
[20] = gliclazide 30 mg MR tablet, single oral, geometric mean (95% CI)
[21] = gliclazide 80 mg IR tablet, single oral, geometric mean (95% CI)
[22] = gliclazide i.v. infusion 30 mg, geometric mean (95% CI)
[23] = gliclazide, ref Chen et al., 2018 [37]
[24] = omeprazole model input, ref Ogilvie et al., 2011 [27]
[25] = first-order absorption model, ref Ogilvie et al., 2011 [27]

Clint CYP2C19 (CYP2C19 [1]; gliclazide, calculated from microsomal total intrinsic clearance [10], CYP abundances and fm [36]): 0.273 µL/min/pmol
Odds ratio of hypoglycemia for the loss-of-function CYP2C19*2 allele [3]: 0.50 (0.18–1.40)
Clint CYP2C9 (CYP2C9 [7]): 0.004 µL/min/pmol
Initial gliclazide release rate between media pH 1.6 and pH 3.0 [10]: no difference
Geometric mean ratio of gliclazide AUC0–24, omeprazole phase/placebo phase ([11]; 40 mg gliclazide, 20 mg omeprazole 5 days, 14 healthy volunteers NM/RM/UM, ratio (90% CI)): 1.13 (0.86–1.48)
AUC(0-t) ([11]; omeprazole phase): 3730 ng·h/mL
AUC(0-t) ([11]; placebo phase): 3290 ng·h/mL
Structure (SMILES): Cc1ccc(S(=O)(=O)NC(=O)NN2CC3CCCC3C2)cc1 (stereo not drawn) [gliclazide]
Contribution of CYP2C19 to gliclazide metabolism (CYP2C19 [2]; human liver microsomes, CYP selective inhibitors): ≤ 35%
fu (fraction unbound) [4]: 0.15
Contribution of CYP2C9 to gliclazide metabolism (CYP2C9 [5]): at least 65%
Log P ([6]; gliclazide model input, ref El-Sabawi, et al., 2014 [45]): 2.04
Compound type [6, 19]: Ampholyte
pKa (first value) [6, 19]: 2.9
pKa (second value) [6, 19]: 5.8
AUC0–72, observed [8, 20]: 14.4 (12.4–16.8) µgh/mL
AUC0–∞, observed [8, 20]: 15.6 (13.5–18.1) µgh/mL
Cmax, observed [8, 20]: 0.71 (0.62–0.82) µg/mL
tmax, observed ([8]; gliclazide 30 mg MR tablet, single oral, median (minimum–maximum)): 7 (4–10) h
AUC0–48, observed [8, 21]: 45.5 (38.9–53.3) µgh/mL
AUC0–∞, observed [8, 21]: 50.9 (42.8–60.5) µgh/mL
Cmax, observed [8, 21]: 3.51 (3.24–3.80) µg/mL
tmax, observed [8, 21]: 3.66 (3.10–4.33) h
AUC0–72, observed [8, 22]: 15.5 (13.0–18.5) µgh/mL
AUC0–∞, observed [8, 22]: 17.2 (14.5–20.3) µgh/mL
Cmax, observed [8, 22]: 1.39 (1.16–1.67) µg/mL
Vss observed in humans in vivo ([8]; gliclazide): 0.19 to 0.46 L/kg
Substrate for the efflux Mrp2 transporter in rats (Mrp2): substrate
Observed gliclazide AUC, fold higher in CYP2C19 PM compared to NM ([9]; ref 11): 3.4 fold
Observed gliclazide AUC, fold higher in CYP2C19 PM compared to NM ([9]; ref 12): 5.1 fold
Substrate of hepatic OATP1B1 transporter (OATP1B1): substrate
Km (OATP1B1; [23]): 30.2 µM
OATP1B1 Jmax (OATP1B1; [23]): 12.9 pmol/min/10^6 cells
Hypoglycemia or other adverse effects in the trial ([11]; 40 mg gliclazide with placebo or 20 mg omeprazole, healthy volunteers): no cases of hypoglycemia or any other adverse effect

Clint CYP2C19 (CYP2C19 [1]; omeprazole, retrograde calculated from observed Clpo after 20 mg single dose, fa*fg = 1): 75.1 µL/min/pmol
Clint CYP3A4 (CYP3A4 [16]): 0.39 µL/min/pmol
Structure (SMILES): COc1ccc2[nH]c([S+]([O-])Cc3ncc(C)c(OC)c3C)nc2c1 (stereo not drawn) [omeprazole]
fm CYP2C19 (CYP2C19 [2]; omeprazole, average value for CYP2C19 EM/RM/UM phenotypes): 86%
Predicted lowest level of active CYP2C19, previous study (CYP2C19 [12]): 14%
Compound type [6, 24]: Ampholyte
pKa (first value) [6, 24]: 4.4
AUC0–∞, observed ([13]; omeprazole 20 mg day 1): 1.04 (0.64–1.72) µM × h
Cmax ([13]; omeprazole 20 mg day 1): 1040 nM
AUC0–∞, observed ([13]; omeprazole 20 mg day 5): 1.63 (0.96–2.78) µM × h
Cmax ([13]; omeprazole 20 mg day 5): 1430 nM
AUC0–∞, observed ([13]; omeprazole 40 mg day 1): 2.44 (1.53–3.91) µM × h
Cmax ([13]; omeprazole 40 mg day 1): 2320 nM
AUC0–∞, observed ([13]; omeprazole 40 mg day 5): 5.79 (3.60–9.33) µM × h
Cmax ([13]; omeprazole 40 mg day 5): 3870 nM
Ki (CYP2C19 [14]): 5 µM
fa (fraction absorbed) [15, 25]: 1
ka (absorption rate constant) [15, 25]: 6 h⁻¹
Vss ([15]; minimal PBPK model, ref Deng 2016 [29], Wu et al., 2014 [28]): 0.15 L/kg
ClR (renal clearance) ([15]; ref Wu et al., 2014 [28], Feng et al., 2015 [42]): 0.037 L/h
fm CYP3A4 (CYP3A4 [17]): 14%

Structure (SMILES): COc1ccnc(C[S+]([O-])c2nc3ccc(OC(F)F)cc3[nH]2)c1OC (stereo not drawn) [pantoprazole]
Effect of pantoprazole on glibenclamide PK [18]: no effect
